The values below are quoted from earlier work in US9950044B2, “Treatment of pulmonary vascular remodeling with neprilysin” (THE REGENTS OF THE UNIVERSITY OF COLORADO, A BODY CORPORATE, priority 2010, dated 2018).

One data set relates to VIP KO mice. As to conditions: IP injections every other day; cited from earlier work.
For data set [1], the system named is human PA SMCs from IPAH patients. As to conditions: cells from IPAH patients; cited from earlier work.
The next data set concerns NEP. As to conditions: exogenous VIP; cited from earlier work.
Another data set deals with human IPAH patients. As to conditions: cited from earlier work.
[2] abbreviates: human IPAH patients, inhalation.

“VIP: 28 amino acid peptide with a molecular weight of 3.33 kD”: in the data set on VIP KO mice, the PA medial thickening entry was “reduced” and the RV hypertrophy result was “reduced”. For the same substance, the “in vitro proliferation of human PA SMCs” value in data set [1] was “inhibited”. Moreover, the “effect on NEP enzymatic activity” value in the data set on NEP was “did not affect”. In addition, in the data set with human IPAH patients (setting [2]), the PaO2 result is “significant improvement” and the exercise capacity entry is listed as “significant improvement”. Besides, the “untoward effects reported by subjects” value in the data set on human IPAH patients (human, in vivo) is on record as “no untoward effects”.
